What was measured:
[1] = molecular target: T1, human ADORA3 (Homo sapiens, UniProt P0DMS8); assay: Calcium flow test (FLIPR), ADORA3 stably transfected CHO; format: cell-based; conditions: Table 9
T1 construct: host or cells: CHO
T1 sequence (P0DMS8 1-318): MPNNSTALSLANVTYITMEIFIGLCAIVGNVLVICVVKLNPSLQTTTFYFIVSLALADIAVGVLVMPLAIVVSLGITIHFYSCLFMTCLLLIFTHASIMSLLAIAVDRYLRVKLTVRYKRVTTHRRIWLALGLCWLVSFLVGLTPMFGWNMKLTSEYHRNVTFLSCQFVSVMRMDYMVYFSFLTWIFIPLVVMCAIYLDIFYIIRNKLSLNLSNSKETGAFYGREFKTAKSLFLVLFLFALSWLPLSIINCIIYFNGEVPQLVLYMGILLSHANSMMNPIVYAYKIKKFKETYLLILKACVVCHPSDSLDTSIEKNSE
Procedure: In this experiment, stably transfected cell lines over-expressing adenosine receptor coupled to human Gq were used, and the antagonistic function of Compound 22 was evaluated by testing the changes in intracellular calcium ion concentration. The binding of the A2AR agonist to A2AR could activate a downstream pathway to increase the intracellular calcium ion concentration. The antagonist would competitively occupy the binding site where the agonist binds to A2AR, thereby interrupting the intracellular signal transduction and leading to a change in the intracellular calcium ion concentration. By detecting the strength of the intracellular calcium ion signal, the antagonistic activities of the compound on human ADORA1, ADORA2A, ADORA2B and ADORA3 adenosine receptors were determined. […]
7) The FLIPR instrument software was operated; following a set program, 10 μL of experimental buffer salt solution was added to the cell plate; and fluorescence signals were read. Then, 10 μL of the reference compound of agonist at a predetermined concentration was added to the cell plate, and the fluorescence signals were read. After reading, data was exported by means of “Max-Min” and “Read 91 to Maximum allowed” in the software, the EC80 of each cell line was calculated, and an agonist with a concentration of 6×EC80 was prepared.
9) The FLIPR instrument software was operated; following a set program, 10 μL of the test compound and 10 μL of the reference compound were added at a predetermined concentration to the cell plate; and the fluorescence signals were read. Then, 10 μL of the reference compound of agonist at a concentration of 6×EC80 was added to the cell plate, and the fluorescence signal were read. For the antagonist detection of the compound, data was exported by means of “Max-Min” and “Read 1 to 90” in the software. […]

[2] = molecular target: T2, Human adenosine ADORA3 receptor membrane protein (Homo sapiens, UniProt P0DMS8); assay: Radioisotope ligand competitive binding, ADORA3 ([3H] HEMADO); conditions: ADORA3 (IC50, nM, n = 3), binding test
T2 construct: purchased PerkinElmer ES-012-M400UA
T2 sequence (P0DMS8 1-318): T1 sequence (P0DMS8 1-318)
Procedure: ADORA3: 25 mM HEPES pH 7.4, 10 mM MgCl2, 1 mM CaCl2, 0.5% BSA
4) Preparation of compounds: the test compounds and the reference compounds were separately diluted with 100% DMSO. For the test compounds, the initial concentration was 10 μM, with double secondary wells; 4-fold gradient dilution was carried out at 10 points; and the final working concentration was 0.038 nM-10 μM (for the second and third detection of the test compound against an ADORA2A target, the initial concentration was 2 μM, with double secondary wells, 4-fold gradient dilution was carried out at 10 points, and the final working concentration was 0.0076 nM-2 μM). For the ADORA1, ADORA2A, ADORA2B, and ADORA3 reference compounds, the initial concentration was 1 μM, with double secondary wells, 4-fold gradient dilution was carried out at 10 points, and the final working concentration was 0.0038 nM-1 μM.
1 μL of a sample to be tested and 1 μL of a reference compound were added to a 96-well plate in sequence. […] 100 μL of cells and 100 μL of isotopes were added to all experimental wells. The 96-well plate was sealed; ADORA1, ADORA2B, and ADORA3 were incubated for 1 hour on a shaker (300 rpm) at room temperature (22° C.); and ADORA2A was incubated for 2 hours on a shaker (300 rpm) at room temperature (22° C.). At the same time, a GF/C filter plate was soaked with ADORA1, ADORA2A, ADORA2B, and ADORA3 by using 0.3% PEI for at least 30 minutes at room temperature, at 50 μL/well. After the incubation was completed, the incubated reaction system was collected onto the GF/C filter plate with a Harvester, washed 4 times and then dried for 0.5 hours in an oven at 50° C. The bottom of the dried GF/C filter plate was sealed with a film, 50 μL of scintillation solution was added to each well, which was then sealed with a Top-seal-A film. With Microbeta readings, the data was analyzed by GraphPad Prism 5.0.
% Inhibition=100×(1−(Sample_raw value−Low control_Average)/(High control_Average−Low control_Average))
The data was fitted with “log(inhibitor) vs response-variable slope” in GraphPad Prism 5.0 to obtain IC50.

IC50 [1]: 32.1 ± 4.52 nM
IC50 ([2]; Table 10 (IC50)): 18 ± 11.4 nM
IC50 ([2]; Table 11): 14.5 nM
Structure (SMILES): Nc1nc2ccc(Cl)cc2c2nc(-c3ccco3)nn12 [CGS-15943, reference compound]
